The values below come from PMC12057363 (Antimicrobial Agents and Chemotherapy, 2025).

Data set [1] relates to YFV-17D. Put plainly: microbe, parasite or virus in culture. The conditions noted are these: Yellow fever virus; for EC90: read-out: Anti-YFV-17D activity Huh-7 EC90. It is filed as cell-based.
Data set [2] has as its system YFV-17D. The data set is described as follows: microbe, parasite or virus in culture. In kind it is cell-based. Particulars: Yellow fever virus, Macrophage, 72 h; for EC50: read-out: Anti-YFV-17D activity MDM EC50; for EC90: read-out: Anti-YFV-17D activity MDM EC90.
In data set [3] the test system is YFV-17D. Put plainly: microbe, parasite or virus in culture. It is filed as cell-based. The conditions noted are these: Yellow fever virus, Huh-7, 72 h; for EC50: read-out: Anti-YFV-17D activity 3D spheroids EC50; for EC90: read-out: Anti-YFV-17D activity 3D spheroids EC90.
For data set [4], the system named is YFV-17D. Put plainly: microbe, parasite or virus in culture. It is filed as cell-based. The conditions noted are these: Yellow fever virus, Huh-7, 72 h; for EC50: read-out: Anti-YFV-17D EC50 (reduction in infectious virus); for EC90: read-out: Anti-YFV-17D EC90 (reduction in infectious virus).
A further data set concerns YFV-DakH1279. The data set is described as follows: microbe, parasite or virus in culture. In kind it is cell-based, Yellow fever virus. The conditions noted are these: for EC50 / EC90: Yellow fever virus, Huh-7, 48 h; for EC50: read-out: Anti-YFV-DakH1279 EC50 (reduction in infectious virus); for EC90: read-out: Anti-YFV-DakH1279 EC90 (reduction in infectious virus).
The test system of another data set is Huh-7 cells. The data set is described as follows: cells. The conditions noted are these: Homo sapiens, Huh-7, 336 h.
Data set [5] concerns YFV-17DD. The conditions noted are these: mouse, in vivo; cited from earlier work.
Data set [6] is described as follows: in vitro. The conditions noted are these: African green monkey.
For another data set, the system named is cell lines. Particulars: cited from earlier work.
Data set [7] has as its system clinical YFV isolate (WT306). Particulars: mouse, in vivo, 10 mg/kg.
The subject of data set [8] is YFV-17DD. Particulars: mouse, in vivo.
A further data set relates to dengue virus (DENV). The conditions noted are these: read-out: EC50 against dengue virus; cited from earlier work.
In data set [9] the test system is Japanese encephalitis virus (JEV). Particulars: read-out: EC50 against Japanese encephalitis virus; cited from earlier work.
A further data set has as its system Zika virus (ZIKV). The conditions noted are these: read-out: EC50 against Zika virus; cited from earlier work.
The subject of the next data set is HCV. The conditions noted are these: read-out: EC50 against HCV; cited from earlier work.
The conditions of data set [10]: rat, in vivo; cited from earlier work.
Data set [11] relates to YFV. Particulars: cited from earlier work.
Data set [12] relates to YFV. The conditions noted are these: mouse, in vivo; cited from earlier work.
A short description of data set [13]: in vitro. The conditions noted are these: human.
The nature of data set [14]: in vitro. The conditions noted are these: human. This is another data set of the same source.
Data set [15] is described as follows: in vitro. The conditions noted are these: human. This is another data set of the same source.
Where [16] appears, read: Huh-7, 72 h, read-out: Anti-YFV-17D activity Huh-7 EC50.
The mark [17] stands for this setting: read-out: Mitotoxicity (Huh-7) IC50 MtDNA.
The mark [18] stands for this setting: read-out: Mitotoxicity (Huh-7) IC50 nDNA.

As a reminder, the EC50 is the concentration that produces a half-maximal response. In general, EC90 refers to the concentration needed for an effect of 90%. As a reminder, the IC50 is the concentration that gives 50% inhibition.

Structures are written as SMILES. Values joined by “and” are separate entries in the source; they are usually repeats but may differ in a detail not shown here. Equal entries are not always repeated. Where two headings read alike, the source gives them in different places.

Consider `CC(C)OC(=O)[C@H](C)N[P@](=O)(OC[C@H]1O[C@@H](n2ccc(=O)[nH]c2=O)[C@@](F)(Br)[C@@H]1O)Oc1ccccc1` [Compound 2-FBU], for which the EC50 in the data set on YFV-17D [1] (setting [16]) came to 900 ± 800 nM; with YFV-17D [2] it was 200 ± 100 nM; with YFV-17D [3], 2200 ± 200 nM; in the data set with YFV-17D [4], 1200 ± 500 nM; with YFV-DakH1279 it was 1700 ± 1100 nM. Also, the EC90 is 8100 ± 3500 nM with YFV-17D [1] (Huh-7, 72 h); 3000 ± 1600 nM in the data set on YFV-17D [2]; 7700 ± 300 nM in the data set on YFV-17D [3]; 8600 ± 3100 nM in the data set with YFV-17D [4]; 3500 ± 2300 nM in the data set on YFV-DakH1279. For the same molecule, the “Average infectious YFV yield, YFV-DakH1279” value in the data set with YFV-DakH1279 is 4.0x10^4 ± 6.1x10^3 FFU/mL and 2.4x10^4 ± 9.8x10^3 FFU/mL and 3.3x10^3 ± 2.4x10^3 FFU/mL and 2.8x10^2 ± 1.7x10^2 FFU/mL. In addition, the IC50 in the data set with Huh-7 cells (setting [17]) was 40900 nM; in the data set with Huh-7 cells (setting [18]), over 50000 nM. For the same molecule, in the data set with YFV-17DD [5], the “log reduction in YFV genome copies in the liver tissue” value is on record as 0.7 log. Besides, in the data set with YFV-17DD [5], the “percent reduction in YFV genome copies in the liver tissue” value is on record as ~ 80%. Further, the CC50 in “in vitro [6]” was over 100000 nM. Also, the “cytotoxicity CC50” value in the data set with cell lines is 68.9–>100.

With `C[C@@]1(O)[C@H](O)[C@@H](CO)O[C@H]1n1cc(F)c2c(N)ncnc21` [DFA, 7-deaza-7-fluoro-2′-C-methyladenosine], the EC50 with YFV-17D [1] (setting [16]) is 900 ± 600 nM. In addition, the EC90 with YFV-17D [1] (Huh-7, 72 h) stood at 3400 ± 500 nM. The EC50 in the data set on YFV-17D [1] (Huh-7, read-out: EC50 against YFV-17D in vitro (summary range)) was in the range of 900 to 5500 nM. Moreover, in the data set with YFV-17D [2], the EC50 was 500 ± 400 nM and the EC90 is 1000 ± 600 nM. In addition, in the data set on YFV-17D [3], the concentration giving a half-maximal response (EC50) is 5500 ± 1300 nM and the EC90 is 12600 ± 1900 nM. For the same molecule, in the data set on YFV-17D [4], the concentration giving a half-maximal response (EC50) worked out at 800 ± 400 nM and the EC90 worked out at 5600 ± 2600 nM. In the data set on YFV-DakH1279, the EC50 is 2400 ± 1900 nM and the EC90 turned out to be 5000 ± 3100 nM. In data set [7], the ALT levels result was “markedly reduced”, the “YFV-mediated liver pathology (histology)” value was “significantly reduced”, the “clinical severity (clinical disease score)” value was “modest but significant decrease” and the “leukocytosis (total circulating leukocytes)” value was “significantly reduced”. For the same molecule, in [7], the “total portion of granulocytes in the blood” value is reported as “significantly reduced”; the “virus replication in the liver, infectious virions (plaque assay)” value is on record as “significantly reduced”; the “virus replication in the liver, total genome copy numbers” value is reported as “significantly reduced”. In addition, in the data set on YFV-17DD [8], the body weight entry is recorded as “no significant changes”; the “inflammatory cell infiltration, infiltrate score” value is ~ 1; the “total white blood cell numbers” value was “no significant changes”. For the same molecule, in the data set on YFV-17DD [8] (10 mg/kg), the ALT levels result is listed as “significantly reduced”, the “YFV-17DD replication in the livers (qRT-PCR)” value is “significantly reduced”, the “liver pathology by histopathological analysis” value is “reduced liver pathology” and the overall health status entry is reported as “no notable impact”. Also, in the data set with Huh-7 cells (setting [17]), the IC50 is over 50000 nM. In addition, the IC50 in the data set on Huh-7 cells (setting [18]) was over 50000 nM. Also, the EC50 in the data set with dengue virus (DENV) is 500 to 1000 nM. Further, the EC50 in data set [9] is 900 nM. Further, in the data set with Zika virus (ZIKV), the EC50 is 3700 nM. For the same molecule, in the data set with HCV, the EC50 was 70 to 900 nM. Also, the CC50 in the data set “in vitro [6]” was found to be 92400 ± 8100 nM. For the same molecule, the “cytotoxicity CC50” value with cell lines is recorded as >100–>200. Also, the pharmacokinetic profile result in data set [10] is given as “favorable pharmacokinetic profile”.

As for `Nc1ncnc2c([C@@H]3N[C@H](CO)[C@@H](O)[C@H]3O)c[nH]c12` [Galidesivir], the “activity against YFV in vitro” value with YFV [11] is on record as “active”.

Consider `CC(C)OC(=O)[C@H](C)N[P@](=O)(OC[C@H]1O[C@@H](n2ccc(=O)[nH]c2=O)[C@](C)(F)[C@@H]1O)Oc1ccccc1` [Sofosbuvir], for which the EC50 amounted to 600 ± 600 nM in the data set on YFV-17D [1] (setting [16]), 1000 ± 700 nM in the data set with YFV-17D [2], 300 ± 100 nM in the data set with YFV-17D [4] and 1600 ± 1300 nM in the data set with YFV-DakH1279. For the same molecule, the EC90 is 3000 ± 2500 nM in the data set on YFV-17D [1] (Huh-7, 72 h); 2400 ± 1500 nM in the data set on YFV-17D [2]; 1200 ± 100 nM with YFV-17D [4]; 3100 ± 2400 nM with YFV-DakH1279. Moreover, the “Average infectious YFV yield, YFV-DakH1279” value in the data set with YFV-DakH1279 is 2.7x10^4 ± 1.1x10^4 FFU/mL and 1.4x10^4 ± 1.2x10^4 FFU/mL and 2.2x10^3 ± 1.2x10^3 FFU/mL and 1.8x10^2 ± 1.2x10^2 FFU/mL. Further, the IC50 in the data set with Huh-7 cells (setting [17]) and in the data set with Huh-7 cells (setting [18]) was over 50000 nM in each case. Also, the “efficacy against YFV in mice” value in the data set with YFV [12] is given as “little efficacy”. The CC50 in the data set “in vitro [13]” is over 100000 nM; in the data set “in vitro [6]”, over 100000 nM; in the data set “in vitro [14]” it was 85600 ± 11600 nM; in the data set “in vitro [15]”, over 100000 nM.
